Earlier results in US5643912A, “Pyrazinoic acid esters as anti-mycobacterium avium agents” (The Research Foundation of State University of NY, priority 1996, dated 1997).

Tested on: Mycobacterium (M.) tuberculosis
Details: cited from earlier work

For `NC(=O)c1cnccn1` [pyrazinamide], the resistance development is given as “resistance develops quickly”.
